# Reference: ChEMBL document CHEMBL1212738, “Phenotypic and genotypic characterization of Enterobacteriaceae with decreased susceptibility to carbapenems: results from large hospital-based surveillance studies in China” (2010)
# Experiments:
# [1] = test system: Escherichia coli; assay: Antimicrobial activity against Escherichia coli C600 transconjugant GZ66T expressing SHV-11, DHA-1 by CLSI method
# [2] = test system: Enterobacter cloacae; assay: Antimicrobial activity against carbapenem-resistant Enterobacter cloacae NJ88 deficient in CTX-M-14, ompC/F by CLSI method; type: functional
# [3] = test system: Enterobacter cloacae; assay: Antimicrobial activity against carbapenem-resistant Enterobacter cloacae NJ90 deficient in CTX-M-14, ompC/F by CLSI method; type: functional
# [4] = test system: Escherichia coli; assay: Antimicrobial activity against carbapenem-resistant Escherichia coli ZJ86 expressing KPC-2, TEM-1 with ompC loss by CLSI method
# [5] = test system: Klebsiella pneumoniae; assay: Antimicrobial activity against Klebsiella pneumoniae FZ47T expressing IMP-8, TEM-1, CTX-M-14, qnrB2, aac(6')-Ib by CLSI method; type: functional
# [6] = test system: Klebsiella pneumoniae; assay: Antimicrobial activity against Klebsiella pneumoniae ZJ99 expressing KPC-2, CTX-M-3, qnrS1, ompK35 DE by CLSI method; type: functional
# [7] = test system: Escherichia coli; assay: Antimicrobial activity against Escherichia coli PU102T expressing TEM-1, CTX-M-14, CMY-2 by CLSI method; type: functional
# [8] = test system: Escherichia coli; assay: Antimicrobial activity against Escherichia coli ZJ86T expressing KPC-2 by CLSI method; type: functional
# [9] = test system: Klebsiella pneumoniae; assay: Antimicrobial activity against carbapenem-resistant Klebsiella pneumoniae FZ49 deficient in IMP-8, TEM-1, SHV-11, CTX-M-14, qnrB2, aac(6')-Ib, ompK35/36 by CLSI method; type: functional
# [10] = test system: Escherichia coli; assay: Antimicrobial activity against Escherichia coli ZJ87T expressing KPC-2 by CLSI method; type: functional
# [11] = test system: Escherichia coli; assay: Antimicrobial activity against Escherichia coli C600 transconjugant WH77T expressing IMP-4, TEM-1, CTX-M-3, qnrS1 by CLSI method
# [12] = test system: Klebsiella pneumoniae; assay: Antimicrobial activity against Klebsiella pneumoniae PU104T expressing TEM-1, CTX-M-15 by CLSI method; type: functional
# [13] = test system: Enterobacter cloacae; assay: Antimicrobial activity against carbapenem-resistant Enterobacter cloacae GX24 deficient in TEM-1, DHA-1, aac(6')-Ib, ompC by CLSI method; type: functional
# [14] = test system: Klebsiella pneumoniae; assay: Antimicrobial activity against carbapenem-resistant Klebsiella pneumoniae SZ61 deficient in TEM-1, SHV-1a, CMY-2, ompK35/36 by CLSI method; type: functional
# [15] = test system: Escherichia coli; assay: Antimicrobial activity against Escherichia coli C600 by CLSI method; type: functional
# [16] = test system: Escherichia coli; assay: Antimicrobial activity against Escherichia coli C600 transconjugant XJ81T expressing TEM-1, SHV-12, aac(6')-Ib by CLSI method
# [17] = test system: Klebsiella pneumoniae; assay: Antimicrobial activity against carbapenem-resistant Klebsiella pneumoniae PU8 deficient in SHV-11, DHA-1, aac(6')-Ib-cr, ompK35/36 by CLSI method; type: functional
# [18] = test system: Klebsiella pneumoniae; assay: Antimicrobial activity against Klebsiella pneumoniae GZ64 expressing IMP-4, ompK35/36 by CLSI method; type: functional
# [19] = test system: Klebsiella pneumoniae; assay: Antimicrobial activity against carbapenem-resistant Klebsiella pneumoniae CY75 deficient in SHV-11, DHA-1, ompK35/36 by CLSI method; type: functional
# [20] = test system: Klebsiella pneumoniae; assay: Antimicrobial activity against Klebsiella pneumoniae ZJ70T expressing KPC-2 by CLSI method; type: functional
# [21] = test system: Klebsiella pneumoniae; assay: Antimicrobial activity against carbapenem-resistant Klebsiella pneumoniae PU5 deficient in SHV-12, DHA-1, aac(6')-Ib-cr, ompK35/36 by CLSI method; type: functional
# [22] = test system: Klebsiella aerogenes; assay: Antimicrobial activity against carbapenem-resistant Enterobacter aerogenes WH85 deficient in TEM-1, CTX-M-3, ompC/F by CLSI method; type: functional
# [23] = test system: Escherichia coli; assay: Antimicrobial activity against Escherichia coli ZJ87 expressing KPC-2, TEM-1, ompC by CLSI method; type: functional
# [24] = test system: Klebsiella pneumoniae; assay: Antimicrobial activity against carbapenem-resistant Klebsiella pneumoniae XJ81 deficient in TEM-1, SHV-12, DHA-1, aac(6')-Ib, ompK35/36 by CLSI method; type: functional
# [25] = test system: Enterobacter cloacae; assay: Antimicrobial activity against carbapenem-resistant Enterobacter cloacae NJ91 deficient in CTX-M-14, ompC/F by CLSI method; type: functional
# [26] = test system: Klebsiella pneumoniae; assay: Antimicrobial activity against Klebsiella pneumoniae ZJ71T expressing KPC-2 by CLSI method; type: functional
# [27] = test system: Enterobacter cloacae; assay: Antimicrobial activity against carbapenem-resistant Enterobacter cloacae NJ89 deficient in CTX-M-14, ompC/F by CLSI method; type: functional
# [28] = test system: Escherichia coli; assay: Antimicrobial activity against Escherichia coli C600 transconjugant WH76T expressing IMP-4, TEM-1, CTX-M-3, qnrS1 by CLSI method
# [29] = test system: Escherichia coli; assay: Antimicrobial activity against carbapenem-resistant Escherichia coli PU101 deficient in TEM-1, CTX-M-14, CMY-2, ompC by CLSI method; type: functional
# [30] = test system: Klebsiella pneumoniae; assay: Antimicrobial activity against carbapenem-resistant Klebsiella pneumoniae ZJ18 deficient in KPC-2, SHV-28, DHA-1, ompK35 by CLSI method; type: functional
# [31] = test system: Klebsiella pneumoniae; assay: Antimicrobial activity against carbapenem-resistant Klebsiella pneumoniae CY1 deficient in SHV-11, DHA-1, ompK35/36 by CLSI method; type: functional
# [32] = test system: Klebsiella pneumoniae; assay: Antimicrobial activity against carbapenem-resistant Klebsiella pneumoniae GZ84 deficient in SHV-11, aac(6')-Ib-cr, ompK35 by CLSI method; type: functional
# [33] = test system: Klebsiella pneumoniae; assay: Antimicrobial activity against Klebsiella pneumoniae ZJ18T expressing KPC-2, DHA-1 by CLSI method; type: functional
# [34] = test system: Klebsiella pneumoniae; assay: Antimicrobial activity against Klebsiella pneumoniae WH77 expressing IMP-4, TEM-1, SHV-14, CTX-M-3, qnrS1 by CLSI method; type: functional
# [35] = test system: Enterobacter cloacae; assay: Antimicrobial activity against carbapenem-resistant Enterobacter cloacae SZ92 deficient in IMP-4, TEM-1, CTX-M-14, DHA-1, qnrB10/B4-like, aac(6')-Ib, ompC by CLSI method; type: functional
# [36] = test system: Escherichia coli; assay: Antimicrobial activity against Escherichia coli PU101T expressing CMY-2 by CLSI method; type: functional
# [37] = test system: Klebsiella pneumoniae; assay: Antimicrobial activity against Klebsiella pneumoniae CY1T expressing SHV-11, DHA-1 by CLSI method; type: functional
# [38] = test system: Escherichia coli; assay: Antimicrobial activity against carbapenem-resistant Escherichia coli HX74 deficient in TEM-1, CTX-M-14, CTX-M-3, aac(6')-Ibcr, ompC/F by CLSI method; type: functional
# [39] = test system: Escherichia coli; assay: Antimicrobial activity against Escherichia coli PU60T expressing CMY-2 by CLSI method; type: functional
# [40] = test system: Klebsiella aerogenes; assay: Antimicrobial activity against Enterobacter aerogenes PU41T expressing CTX-M-14, DHA-1, qnrS1 by CLSI method; type: functional
# [41] = test system: Citrobacter freundii; assay: Antimicrobial activity against Citrobacter freundii RJ78 expressing CMY-2, qnrA1, aac(6')-Ib-cr, ompC by CLSI method; type: functional
# [42] = test system: Klebsiella pneumoniae; assay: Antimicrobial activity against Klebsiella pneumoniae ZJ68T expressing CTX-M-15 by CLSI method; type: functional
compound,measurement,setting,value
CO[C@@]1(NC(=O)Cc2cccs2)C(=O)N2C(C(=O)O)=C(COC(N)=O)CS[C@@H]21 [CEFOXITIN],MIC,[1],128 µg/mL
same,MIC,[2],> 256 µg/mL
same,MIC,[3],> 256 µg/mL
same,MIC,[4],64 µg/mL
same,MIC,[5],> 256 µg/mL
same,MIC,[6],32 µg/mL
same,MIC,[7],> 256 µg/mL
same,MIC,[8],64 µg/mL
same,MIC,[9],> 256 µg/mL
same,MIC,[10],64 µg/mL
same,MIC,[11],> 256 µg/mL
same,MIC,[12],256 µg/mL
same,MIC,[13],> 256 µg/mL
same,MIC,[14],> 256 µg/mL
same,MIC,[15],16 µg/mL
same,MIC,[16],16 µg/mL
same,MIC,[17],> 256 µg/mL
same,MIC,[18],> 256 µg/mL
same,MIC,[19],> 256 µg/mL
same,MIC,[20],32 µg/mL
same,MIC,[21],> 256 µg/mL
same,MIC,[22],256 µg/mL
same,MIC,[23],64 µg/mL
same,MIC,[24],> 256 µg/mL
same,MIC,[25],> 256 µg/mL
same,MIC,[26],32 µg/mL
same,MIC,[27],> 256 µg/mL
same,MIC,[28],> 256 µg/mL
same,MIC,[29],> 256 µg/mL
same,MIC,[30],> 256 µg/mL
same,MIC,[31],> 256 µg/mL
same,MIC,[32],> 256 µg/mL
same,MIC,[33],128 µg/mL
same,MIC,[34],> 256 µg/mL
same,MIC,[35],> 256 µg/mL
same,MIC,[36],> 256 µg/mL
same,MIC,[37],64 µg/mL
same,MIC,[38],64 µg/mL
same,MIC,[39],128 µg/mL
same,MIC,[40],256 µg/mL
same,MIC,[41],> 256 µg/mL
same,MIC,[42],16 µg/mL
CC(C)(O/N=C(\C(=O)N[C@@H]1C(=O)N2C(C(=O)[O-])=C(C[n+]3ccccc3)CS[C@H]12)c1csc(N)n1)C(=O)O [CEFTAZIDIME],MIC,[1],128 µg/mL
same,MIC,[2],> 256 µg/mL
same,MIC,[3],> 256 µg/mL
same,MIC,[4],32 µg/mL
same,MIC,[5],> 256 µg/mL
same,MIC,[6],64 µg/mL
same,MIC,[7],64 µg/mL
same,MIC,[8],32 µg/mL
same,MIC,[9],> 256 µg/mL
same,MIC,[10],32 µg/mL
same,MIC,[11],> 256 µg/mL
same,MIC,[12],64 µg/mL
same,MIC,[13],> 256 µg/mL
same,MIC,[14],256 µg/mL
same,MIC,[15],0.5 µg/mL
same,MIC,[16],64 µg/mL
same,MIC,[17],256 µg/mL
same,MIC,[18],> 256 µg/mL
same,MIC,[19],256 µg/mL
same,MIC,[20],32 µg/mL
same,MIC,[21],256 µg/mL
same,MIC,[22],32 µg/mL
same,MIC,[23],32 µg/mL
same,MIC,[24],> 256 µg/mL
same,MIC,[25],> 256 µg/mL
same,MIC,[26],32 µg/mL
same,MIC,[27],> 256 µg/mL
same,MIC,[28],> 256 µg/mL
same,MIC,[29],> 256 µg/mL
same,MIC,[30],64 µg/mL
same,MIC,[31],256 µg/mL
same,MIC,[32],256 µg/mL
same,MIC,[33],16 µg/mL
same,MIC,[34],256 µg/mL
same,MIC,[35],> 256 µg/mL
same,MIC,[36],> 256 µg/mL
same,MIC,[37],64 µg/mL
same,MIC,[38],256 µg/mL
same,MIC,[39],64 µg/mL
same,MIC,[40],64 µg/mL
same,MIC,[41],128 µg/mL
same,MIC,[42],256 µg/mL
CN(C)c1cc(NC(=O)CNC(C)(C)C)c(O)c2c1C[C@H]1C[C@H]3[C@H](N(C)C)C(O)=C(C(N)=O)C(=O)[C@@]3(O)C(O)=C1C2=O [TIGECYCLINE],MIC,[1],0.125 µg/mL
same,MIC,[2],0.5 µg/mL
same,MIC,[3],0.5 µg/mL
same,MIC,[4],0.25 µg/mL
same,MIC,[5],0.06 µg/mL
same,MIC,[6],1 µg/mL
same,MIC,[7],0.25 µg/mL
same,MIC,[8],0.25 µg/mL
same,MIC,[9],0.5 µg/mL
same,MIC,[10],0.25 µg/mL
same,MIC,[11],0.06 µg/mL
same,MIC,[12],0.25 µg/mL
same,MIC,[13],1 µg/mL
same,MIC,[14],4 µg/mL
same,MIC,[15],0.06 µg/mL
same,MIC,[16],0.064 µg/mL
same,MIC,[17],1 µg/mL
same,MIC,[18],0.5 µg/mL
same,MIC,[19],1 µg/mL
same,MIC,[20],0.13 µg/mL
same,MIC,[21],0.5 µg/mL
same,MIC,[22],0.064 µg/mL
same,MIC,[23],0.25 µg/mL
same,MIC,[24],0.5 µg/mL
same,MIC,[25],0.5 µg/mL
same,MIC,[26],0.13 µg/mL
same,MIC,[27],0.5 µg/mL
same,MIC,[28],0.06 µg/mL
same,MIC,[29],0.064 µg/mL
same,MIC,[30],1 µg/mL
same,MIC,[31],16 µg/mL
same,MIC,[32],0.5 µg/mL
same,MIC,[33],0.06 µg/mL
same,MIC,[34],0.5 µg/mL
same,MIC,[35],1 µg/mL
same,MIC,[36],0.25 µg/mL
same,MIC,[37],1 µg/mL
same,MIC,[38],0.064 µg/mL
same,MIC,[39],0.125 µg/mL
same,MIC,[40],0.064 µg/mL
same,MIC,[41],1 µg/mL
same,MIC,[42],0.064 µg/mL
